# Source: US20190175557A1, “COMPOUNDS USEFUL FOR DECREASING INTERFERON LEVEL” (priority 2016, published 2019)
# What was measured:
# flu-exposed human PBMC = type: cell-based; settings: cells pre-treated before Flu exposure, human PBMC
# [1] = test system: 129S8 mice infected with Influenza A virus strain X31 (H3N2); settings: mouse, in vivo
# pDC = experiment: Cytotoxicity of compounds on cultured pDC; settings: 10 μM
# [2] = test system: Flu-stimulated pDC from wild type and H4R KO mice; type: cell-based, mouse; settings: CB 10 μM, overnight Influenza A
# HIV-stimulated pDC [3] = experiment: Activation markers and cytokine mRNA in HIV-stimulated pDC (RT-qPCR, flow cytometry); type: cell-based, human
# [4] = test system: HIV or LPS stimulated monocytes; experiment: IFN-γ mRNA in monocytes stimulated with HIV or LPS (RT-qPCR); type: cell-based; settings: RT-qPCR normalized to RPL13A
# Description: Data shown are representative of two independent experiments.
# Monocytes were pre-incubated with clobenpropit (CB), IT1t or chloroquine before being activated by HIV and LPS. IFN-γ levels were measured by RT-qPCR and normalized to RPL13A mRNA expression.
# HIV-stimulated pDC [5] = experiment: IFN-α / type I IFN production by HIV-stimulated purified pDC (ELISA); type: cell-based, human
# [6] = test system: human Flu-activated primary PBMC; experiment: cells; type: cell-based; settings: read-out: EC50
# [7] = Solubility of test compounds
# Flu-stimulated pDC = experiment: IFN-α production and membrane TRAIL by pDC cultured with Flu or Dengue; type: cell-based, human
# Description: PBMC were seeded at 1.10^6/1 mL or purified pDC were seeded at 5.10^4/100 μl and then stimulated with the following viruses: inactivated AT-2 HIV-1MN (CXCR4 co-receptor specific) or AT-2 HIV-1ADA (CCR5 co-receptor specific) at 60 ng/mL p24^CA equivalent (provided by J. D. Lifson (SAIC-NCI, Frederick, Md.)), Infectious human Influenza A/PR/8/34 virus (Flu), titer 1:8192 at dilution 1:1000 or DENV-2 16681 at MOI 10. Infectious HIV-1MN [tissue culture 50% infective dose (TCID50)=[…]] and HIV-1ADA (TCID50=1,000) were used at the same concentration. Purified pDC were pre-treated with amino compounds for 1 hour, following overnight stimulation with virus. Supernatants were collected for cytokine detection. Microvesicles isolated from uninfected cell cultures matched to the culture to produce the virus were used as negative control (Mock).
# The compounds were added in pDC culture at 10 μM (or other if specified) 1 hour before stimulation or not of the different viruses. For histamine, X-vivo culture media (Lonza) was used in order to avoid histaminases.
# Cells were pre-incubated 1 hour with AMD (20 μM) (Sigma-Aldrich, MO, USA) prior to CB or histamine incubation. pDC were cultured in the presence of […] of the oligodinucleotide A151 (TTAGGG) ODN (Integrated DNA Technologies, Coralville, Iowa). […]
# [8] = test system: collagen-induced arthritis in DBA1/J mice; experiment: Therapeutic collagen-induced arthritis model in DBA1/J mice; type: in vivo, mouse; settings: for average AI (Arthritic Index): maximum AI=16
# Description: 80 DBA1/J mice (male, 7-8 weeks) was received and placed in quarantine for 3 days with daily inspections. Ear tag mice for individual identification.
# Individual mouse weights were recorded. Hind paw thickness were recorded by digital caliper. 80 mice subcutaneous were injected with collagen/CFA emulsion (0.05 ml/mouse; 100 μg/mouse collagens in CFA) using a 1 ml syringe fitted with a 25G needle. Mice returned to cages.
# 80 mice were boosted with collagen/ICFA emulsion. Then their individual weights were recorded.
# Mice were scored for signs of arthritis:
# 7) Calculate Arthritic Index (AI) by addition of individual paw scores and record.
# Mice with an AI score within a range of 2-6 were selected for assignment to groups for therapeutic dosing as in Table 4.
# Begin intraperitoneal (IP) dosing once daily (QD) according to Table 4.
# The compounds clobenpropit (CB) and IT1t were tested. CB and IT1t were stored at 4° C. […] These compounds were doses 7 days per week (Saturday and Sunday included) daily for 14 days.
# Mice were weighed, scored for signs or arthritis, and hind paw thickness is measured by digital caliper three-times weekly (Monday, Wednesday and Friday). Any adverse reactions to treatment were recorded.
# Termination: AI score were recorded for each limb. The paw thickness of the hind limbs is measured with digital caliper. Mice were anesthetized and exsanguinated into pre-chilled EDTA-tubes.
# 2) Plasma was assayed by ELISA for IL-1β, IL-6, TRAIL. Then, all limbs were collected.
# [9] = 10 mg/kg IP once daily, at termination
# [10] = 30 mg/kg IP once daily, at termination
compound,measurement,setting,value
"NC(=NCc1ccc(Cl)cc1)SCCCc1cnc[nH]1 [Clobenpropit, clobenpropit]",IFN-α/β and IFN-λ2/3 mRNA levels,flu-exposed human PBMC,significantly reduced
same,"IFN-α, IFN-β and IFN-λ2/3 protein production in bronchioalveolar lavage (BAL) fluid",[1],strong reduction
same,cytotoxicity on purified pDC,pDC,no cytotoxic effect
same,IFN-α production by Flu-stimulated pDC from H4R KO mice,[2],inhibited
same,IFN-α production by Flu-stimulated pDC from wild type mice,[2],inhibited
same,iNOS or IL-15 gene expression,"HIV-stimulated pDC [3]; HIV-1-stimulated pDC, RT-qPCR",neither CB nor FFN-511 affected
same,"transcription of virus-induced genes (TRAIL, IFNs, IL6, IL8, IL10, CXCL10, ISG56) induced in pDC by HIV-1","HIV-stimulated pDC [3]; RT-qPCR profiling, normalized to RPL13A",dramatically inhibited
same,IFN-γ expression by HIV or LPS stimulated monocytes,[4],inhibit
same,IFN-α production kinetics by HIV-stimulated pDC,HIV-stimulated pDC [5]; after 9 h of incubation,inhibited
same,inhibitory effect on pDC activation / IFN-α production by HIV-1,"HIV-stimulated pDC [5]; purified pDC, 10 μM",stronger inhibitory effect than histamine
same,reduction of levels of IFN-α secreted following HIV stimulation,"HIV-stimulated pDC [5]; purified pDC, 10 μM, ELISA",approximately 90%
same,EC50,[6],24 ± 2 µM
same,Therapeutic index (Ratio TC50/EC50),human primary PBMC,17.4
same,solubility,"[7]; PBS, aqueous buffer",> 50 mg/mL
same,solubility,[7]; water,> 50 mg/mL
same,IFN-α production and membrane TRAIL expression by pDC cultured with Flu and Dengue,Flu-stimulated pDC,strongly inhibited
same,reduction in terminal plasma concentration of IL-1β,[8]; 3 mg/kg IP once daily,64%
same,reduction in terminal plasma concentration of IL-6,[8]; 3 mg/kg IP once daily,49%
same,reduction in terminal plasma concentration of TRAIL,[8]; 3 mg/kg IP once daily,had also an effect
same,inhibition of disease severity,"[8]; 3 mg/kg IP once daily, Day 28-42, at termination (Day 42)",25%
same,average AI (Arthritic Index),"[8]; 3 mg/kg IP once daily, at termination (Day 42)",9.8
same,reduction in terminal plasma concentration of IL-1β,[8]; 10 mg/kg IP once daily,75%
same,reduction in terminal plasma concentration of IL-6,[8]; 10 mg/kg IP once daily,80%
same,reduction in terminal plasma concentration of TRAIL,[8]; 10 mg/kg IP once daily,had also an effect
same,reduction in disease severity,[8]; [9],66%
same,average AI (Arthritic Index),[8]; [9],4.4
same,reduction in terminal plasma concentration of IL-1β,[8]; 30 mg/kg IP once daily,82%
same,reduction in terminal plasma concentration of IL-6,[8]; 30 mg/kg IP once daily,82%
same,reduction in terminal plasma concentration of TRAIL,[8]; 30 mg/kg IP once daily,significant reduction
same,reduction in disease severity,[8]; [10],87%
same,average AI (Arthritic Index),[8]; [10],1.8
same,disease progression over the dose range,"[8]; 3, 10 and 30 mg/kg daily intraperitoneal injection",dose-dependent inhibition
